According to the supplement of paper PMC10307832:

Experiments:
[1] = compound: CC1(C)CCC(CN2CCN(c3ccc(C(=O)NS(=O)(=O)c4ccc(NCC5CCOCC5)c([N+](=O)[O-])c4)c(Oc4cnc5[nH]ccc5c4)c3)CC2)=C(c2ccc(Cl)cc2)C1 [Venetoclax] + Cc1nc(Nc2ncc(C(=O)Nc3c(C)cccc3Cl)s2)cc(N2CCN(CCO)CC2)n1 [Dasatinib] (partner 0.075 µM); assay: relative viability (nuclei count vs DMSO), 5 days (fraction); higher = more cells survive
Procedure, shortened: (§1)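 A single step with final 0.05% Triton X-100, 1% formaldehyde and 1 ug/ml Hoechst fixed the cells and stained nuclei 5 days after treatment. Lung cancer cell lines in 1536-well plates had been treated by pin tool the day after seeding with one drug alone or a fixed anchor-drug dose plus five library-drug doses (not always all listed) in √10 steps, and nuclei were counted on 4× images. Relative viability is the ratio of nuclei in treated wells to nuclei in vehicle wells, taken as the median of duplicate plates.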

[2] = compound: CC1(C)CCC(CN2CCN(c3ccc(C(=O)NS(=O)(=O)c4ccc(NCC5CCOCC5)c([N+](=O)[O-])c4)c(Oc4cnc5[nH]ccc5c4)c3)CC2)=C(c2ccc(Cl)cc2)C1 [Venetoclax] + CCNC(=O)c1noc(-c2cc(C(C)C)c(O)cc2O)c1-c1ccc(CN2CCOCC2)cc1 [Luminespib] (partner 0.01 µM); assay: as above
Procedure, shortened: as §1

Work on SW 1573 yielded a relative viability ([1]; first compound 0.01 µM) of 0.431, a relative viability ([1]; first compound 0.03162 µM) of 0.445 and a relative viability ([1]; first compound 0.1 µM) of 0.517. It also gave a relative viability ([1]; first compound 0.3162 µM) of 0.599, a relative viability ([1]; first compound 1 µM) of 0.452 and a relative viability ([2]; first compound 0.01 µM) of 0.234. The relative viability ([2]; first compound 0.03162 µM) was 0.152, the relative viability ([2]; first compound 0.1 µM) was 0.153 and the relative viability ([2]; first compound 0.3162 µM) was 0.385. For the same cell line, the relative viability ([2]; first compound 1 µM) was 0.215.
Work on NCI-H1666 yielded a relative viability ([1]; first compound 0.01 µM) of 0.816, a relative viability ([1]; first compound 0.03162 µM) of 0.821 and a relative viability ([1]; first compound 0.1 µM) of 0.838. The relative viability ([1]; first compound 0.3162 µM) was 0.708, the relative viability ([1]; first compound 1 µM) was 0.766 and the relative viability ([2]; first compound 0.01 µM) was 0.894. The relative viability ([2]; first compound 0.03162 µM) was 1.08, the relative viability ([2]; first compound 0.1 µM) was 0.953 and the relative viability ([2]; first compound 0.3162 µM) was 0.973. For the same cell line, the relative viability ([2]; first compound 1 µM) was 0.996.
Cell Line BEN has a relative viability ([1]; first compound 0.01 µM) of 0.323, a relative viability ([1]; first compound 0.03162 µM) of 0.362 and a relative viability ([1]; first compound 0.1 µM) of 0.374. The relative viability ([1]; first compound 0.3162 µM) was 0.34, the relative viability ([1]; first compound 1 µM) was 0.303 and the relative viability ([2]; first compound 0.01 µM) was 0.343. For the same cell line, the relative viability ([2]; first compound 0.03162 µM) was 0.48, the relative viability ([2]; first compound 0.1 µM) was 0.401 and the relative viability ([2]; first compound 0.3162 µM) was 0.192. For the same cell line, the relative viability ([2]; first compound 1 µM) was 0.513.
For EMC-BAC-2, the relative viability ([1]; first compound 0.01 µM) was 0.331, the relative viability ([1]; first compound 0.03162 µM) was 0.343 and the relative viability ([1]; first compound 0.1 µM) was 0.292. For the same cell line, the relative viability ([1]; first compound 0.3162 µM) was 0.327, the relative viability ([1]; first compound 1 µM) was 0.31 and the relative viability ([2]; first compound 0.01 µM) was 1.09. For the same cell line, the relative viability ([2]; first compound 0.03162 µM) was 1.16, the relative viability ([2]; first compound 0.1 µM) was 1.23 and the relative viability ([2]; first compound 0.3162 µM) was 1.21. It also gave a relative viability ([2]; first compound 1 µM) of 1.1.
ABC-1 showed a relative viability ([1]; first compound 0.01 µM) of 0.665, a relative viability ([1]; first compound 0.03162 µM) of 0.655 and a relative viability ([1]; first compound 0.1 µM) of 0.445. It also gave a relative viability ([1]; first compound 0.3162 µM) of 0.658, a relative viability ([1]; first compound 1 µM) of 0.604 and a relative viability ([2]; first compound 0.01 µM) of 0.553. The relative viability ([2]; first compound 0.03162 µM) was 0.53, the relative viability ([2]; first compound 0.1 µM) was 0.689 and the relative viability ([2]; first compound 0.3162 µM) was 0.431. For the same cell line, the relative viability ([2]; first compound 1 µM) was 0.912.
Cell Line NCI-H2170 has a relative viability ([1]; first compound 0.01 µM) of 0.569, a relative viability ([1]; first compound 0.03162 µM) of 0.508 and a relative viability ([1]; first compound 0.1 µM) of 0.373. It also gave a relative viability ([1]; first compound 0.3162 µM) of 0.556, a relative viability ([1]; first compound 1 µM) of 0.502 and a relative viability ([2]; first compound 0.01 µM) of 0.589. The relative viability ([2]; first compound 0.03162 µM) was 0.427, the relative viability ([2]; first compound 0.1 µM) was 0.766 and the relative viability ([2]; first compound 0.3162 µM) was 0.737. For the same cell line, the relative viability ([2]; first compound 1 µM) was 0.689.
Work on NCI-H1437 yielded a relative viability ([1]; first compound 0.01 µM) of 0.508, a relative viability ([1]; first compound 0.03162 µM) of 0.494 and a relative viability ([1]; first compound 0.1 µM) of 0.274. The relative viability ([1]; first compound 0.3162 µM) was 0.44, the relative viability ([1]; first compound 1 µM) was 0.478 and the relative viability ([2]; first compound 0.01 µM) was 1.07. It also gave a relative viability ([2]; first compound 0.03162 µM) of 1.19, a relative viability ([2]; first compound 0.1 µM) of 1.13 and a relative viability ([2]; first compound 0.3162 µM) of 1.15. The relative viability ([2]; first compound 1 µM) was 1.07.
NCI-H3122 gave a relative viability ([1]; first compound 0.01 µM) of 0.811, a relative viability ([1]; first compound 0.03162 µM) of 0.757 and a relative viability ([1]; first compound 0.1 µM) of 0.885. It also gave a relative viability ([1]; first compound 0.3162 µM) of 0.786, a relative viability ([1]; first compound 1 µM) of 0.817 and a relative viability ([2]; first compound 0.01 µM) of 0.0697. It also gave a relative viability ([2]; first compound 0.03162 µM) of 0.0939, a relative viability ([2]; first compound 0.1 µM) of 0.105 and a relative viability ([2]; first compound 0.3162 µM) of 0.0864. For the same cell line, the relative viability ([2]; first compound 1 µM) was 0.101.
NCI-H2023 gave a relative viability ([1]; first compound 0.01 µM) of 0.697, a relative viability ([1]; first compound 0.03162 µM) of 0.53 and a relative viability ([1]; first compound 0.1 µM) of 0.653. The relative viability ([1]; first compound 0.3162 µM) was 0.512, the relative viability ([1]; first compound 1 µM) was 0.46 and the relative viability ([2]; first compound 0.01 µM) was 0.744. For the same cell line, the relative viability ([2]; first compound 0.03162 µM) was 0.911, the relative viability ([2]; first compound 0.1 µM) was 0.859 and the relative viability ([2]; first compound 0.3162 µM) was 0.784. For the same cell line, the relative viability ([2]; first compound 1 µM) was 0.676.
In the case of NCI-H460, the relative viability ([1]; first compound 0.01 µM) is reported as 0.597, the relative viability ([1]; first compound 0.03162 µM) is reported as 0.532 and the relative viability ([1]; first compound 0.1 µM) is reported as 0.401. It also gave a relative viability ([1]; first compound 0.3162 µM) of 0.527, a relative viability ([1]; first compound 1 µM) of 0.478 and a relative viability ([2]; first compound 0.01 µM) of 0.0354. For the same cell line, the relative viability ([2]; first compound 0.03162 µM) was 0.0317, the relative viability ([2]; first compound 0.1 µM) was 0.0311 and the relative viability ([2]; first compound 0.3162 µM) was 0.0401. The relative viability ([2]; first compound 1 µM) was 0.0316.
Work on PC-3 [JPC-3] yielded a relative viability ([1]; first compound 0.01 µM) of 0.863, a relative viability ([1]; first compound 0.03162 µM) of 0.991 and a relative viability ([1]; first compound 0.1 µM) of 0.995. The relative viability ([1]; first compound 0.3162 µM) was 1.01, the relative viability ([1]; first compound 1 µM) was 0.942 and the relative viability ([2]; first compound 0.01 µM) was 0.673. The relative viability ([2]; first compound 0.03162 µM) was 0.661, the relative viability ([2]; first compound 0.1 µM) was 0.667 and the relative viability ([2]; first compound 0.3162 µM) was 0.688. It also gave a relative viability ([2]; first compound 1 µM) of 0.668.
HCC-15 showed a relative viability ([1]; first compound 0.01 µM) of 0.607, a relative viability ([1]; first compound 0.03162 µM) of 0.627 and a relative viability ([1]; first compound 0.1 µM) of 0.587. For the same cell line, the relative viability ([1]; first compound 0.3162 µM) was 0.645, the relative viability ([1]; first compound 1 µM) was 0.549 and the relative viability ([2]; first compound 0.01 µM) was 0.479. For the same cell line, the relative viability ([2]; first compound 0.03162 µM) was 0.318, the relative viability ([2]; first compound 0.1 µM) was 0.308 and the relative viability ([2]; first compound 0.3162 µM) was 0.316. The relative viability ([2]; first compound 1 µM) was 0.181.
With NCI-H2228 the relative viability ([1]; first compound 0.01 µM) was 0.555, the relative viability ([1]; first compound 0.03162 µM) was 0.546 and the relative viability ([1]; first compound 0.1 µM) was 0.496. For the same cell line, the relative viability ([1]; first compound 0.3162 µM) was 0.488, the relative viability ([1]; first compound 1 µM) was 0.447 and the relative viability ([2]; first compound 0.01 µM) was 0.162. It also gave a relative viability ([2]; first compound 0.03162 µM) of 0.158, a relative viability ([2]; first compound 0.1 µM) of 0.15 and a relative viability ([2]; first compound 0.3162 µM) of 0.128. For the same cell line, the relative viability ([2]; first compound 1 µM) was 0.147.
With NCI-H1650 the relative viability ([1]; first compound 0.01 µM) was 0.362, the relative viability ([1]; first compound 0.03162 µM) was 0.352 and the relative viability ([1]; first compound 0.1 µM) was 0.29. The relative viability ([1]; first compound 0.3162 µM) was 0.324, the relative viability ([1]; first compound 1 µM) was 0.305 and the relative viability ([2]; first compound 0.01 µM) was 0.196. The relative viability ([2]; first compound 0.03162 µM) was 0.202, the relative viability ([2]; first compound 0.1 µM) was 0.2 and the relative viability ([2]; first compound 0.3162 µM) was 0.189. It also gave a relative viability ([2]; first compound 1 µM) of 0.207.
Cell Line NCI-H2342 has a relative viability ([1]; first compound 0.01 µM) of 0.436, a relative viability ([1]; first compound 0.03162 µM) of 0.341 and a relative viability ([1]; first compound 0.1 µM) of 0.325. The relative viability ([1]; first compound 0.3162 µM) was 0.288, the relative viability ([1]; first compound 1 µM) was 0.331 and the relative viability ([2]; first compound 0.01 µM) was 0.807. It also gave a relative viability ([2]; first compound 0.03162 µM) of 0.737, a relative viability ([2]; first compound 0.1 µM) of 0.635 and a relative viability ([2]; first compound 0.3162 µM) of 0.765. The relative viability ([2]; first compound 1 µM) was 0.719.
For NCI-H1975, the relative viability ([1]; first compound 0.01 µM) was 0.355, the relative viability ([1]; first compound 0.03162 µM) was 0.4 and the relative viability ([1]; first compound 0.1 µM) was 0.372. The relative viability ([1]; first compound 0.3162 µM) was 0.318, the relative viability ([1]; first compound 1 µM) was 0.322 and the relative viability ([2]; first compound 0.01 µM) was 0.241. The relative viability ([2]; first compound 0.03162 µM) was 0.212, the relative viability ([2]; first compound 0.1 µM) was 0.191 and the relative viability ([2]; first compound 0.3162 µM) was 0.172. The relative viability ([2]; first compound 1 µM) was 0.251.
